Entries after “also recorded” stand apart in the source; their conditions may differ.
Tests used:
[1] = tested on: Vesicular Stomatitis Virus (VSV); type: cell-based
Sindbis virus = Sindbis virus plaque assay; details: African green monkey epithelial cells (Vero), 5 μM, 30 min pre-treatment
UCH-L3 = UCH-L3 (Homo sapiens, UniProt P15374); assay: Ub-AMC assay on purified DUB; type: biochemical
Procedure: (§1) Purified DUBs at optimal concentrations (USPS; 20 nM, UCH-L1; 20 nM, UCH-L3; 5 nM, USP9x; immunoprecipitated from 500 μg Z138 cell lysate) were incubated in DUB buffer containing WP1130, vehicle alone (DMSO) or 1 mM NEM (positive control for DUB inhibition) in a 100 μL reaction volume for 30 min. The reaction was initiated by the addition of 500 nM Ub-AMC and the release of AMC-fluorescence was recorded at ex/em 380/480 using a spectrofluorometer.
(§2) USP9x was immunoprecipitated from Z138 cell lysates, prepared in DUB buffer and the beads were incubated with vehicle alone or WP1130 for 30 min. Ub-AMC (500 nM) was added to each reaction and fluorescence was monitored every minute for up to 30 minutes. The maximum fluorescence observed at the end of the linear phase of substrate cleavage in control and WP1130 treated DUBs was used as a gauge to estimate DUB activity and % inhibition. Treatment with 5 μM WP1130 reduced the activities of USP9x, USP5 and UCH-L1 by 80% or more.

USP5 = biological target: T1, USP5 (Homo sapiens, UniProt P45974); assay: Ub-AMC assay on purified DUB; type: biochemical; details: 5 μM
T1 construct: endogenous in cells; host or cells: Z138
T1 sequence (P45974 1-858): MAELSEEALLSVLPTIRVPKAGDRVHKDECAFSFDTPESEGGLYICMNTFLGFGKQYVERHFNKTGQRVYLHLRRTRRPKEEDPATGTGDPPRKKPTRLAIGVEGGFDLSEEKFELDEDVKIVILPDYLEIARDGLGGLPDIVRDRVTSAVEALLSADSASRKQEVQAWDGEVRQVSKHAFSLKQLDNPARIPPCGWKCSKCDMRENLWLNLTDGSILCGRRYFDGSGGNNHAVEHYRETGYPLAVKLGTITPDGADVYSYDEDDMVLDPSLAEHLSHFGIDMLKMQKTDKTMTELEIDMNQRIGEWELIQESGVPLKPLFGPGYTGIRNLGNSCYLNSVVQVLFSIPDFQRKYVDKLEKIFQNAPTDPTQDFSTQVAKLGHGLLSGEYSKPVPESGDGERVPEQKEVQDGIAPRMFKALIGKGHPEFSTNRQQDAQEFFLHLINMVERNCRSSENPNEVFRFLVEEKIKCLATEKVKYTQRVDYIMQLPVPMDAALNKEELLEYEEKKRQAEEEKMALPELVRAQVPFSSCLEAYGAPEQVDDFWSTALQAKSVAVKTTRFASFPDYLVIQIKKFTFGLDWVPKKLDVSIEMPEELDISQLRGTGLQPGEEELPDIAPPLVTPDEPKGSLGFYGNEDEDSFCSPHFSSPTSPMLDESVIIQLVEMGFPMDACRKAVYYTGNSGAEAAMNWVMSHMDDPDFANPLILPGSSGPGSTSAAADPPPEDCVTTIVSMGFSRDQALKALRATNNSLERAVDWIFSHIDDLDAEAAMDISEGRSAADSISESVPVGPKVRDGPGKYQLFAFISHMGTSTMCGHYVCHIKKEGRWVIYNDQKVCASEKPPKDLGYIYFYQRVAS
Procedure: as §1, §2

UCH-L1 = UCH-L1 (Homo sapiens, UniProt P09936); assay: Ub-AMC assay on purified DUB; type: biochemical; details: 5 μM
Chain of UCH-L1 (P09936 whole entry, species assumed): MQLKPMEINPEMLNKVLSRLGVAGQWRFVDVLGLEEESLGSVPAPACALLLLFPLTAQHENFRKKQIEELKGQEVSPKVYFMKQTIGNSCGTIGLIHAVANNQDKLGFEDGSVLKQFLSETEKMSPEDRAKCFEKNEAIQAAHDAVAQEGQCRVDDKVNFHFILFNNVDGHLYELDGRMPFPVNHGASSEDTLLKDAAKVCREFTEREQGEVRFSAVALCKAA
Procedure: as §1, §2

Murine norovirus (MNV) = assay: Murine norovirus plaque assay; type: cell-based; details: Norwalk virus
Procedure: Viral titers were determined by plaque assay.
Cells were treated with IFN-β as a positive anti-viral control.

20S proteasome = biological target: T2, 20S proteasome (Homo sapiens, UniProt P28074); assay: Proteasome activity assay in treated cells (Suc-LLVY-AMC); type: cell-based; details: 5 μM, 2 hr
T2 construct: endogenous in cells; host or cells: K562 and other CML lines, Z138
T2 sequence (P28074 60-263): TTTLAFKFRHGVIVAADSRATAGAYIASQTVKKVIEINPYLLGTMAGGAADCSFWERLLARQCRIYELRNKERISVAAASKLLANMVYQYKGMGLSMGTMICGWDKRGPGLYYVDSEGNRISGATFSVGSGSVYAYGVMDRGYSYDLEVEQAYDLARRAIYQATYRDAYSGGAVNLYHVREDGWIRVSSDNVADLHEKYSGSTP
Procedure: Fluorogenic substrate Suc-LLVY-AMC was used to assay for the chymotryptic-like activity of the 20S proteasome. To assay for in vivo proteasome inhibition cells were treated with WP1130 (5 μM) or MG132 (5 μM) for 2 hours and lysed in ice-cold lysis buffer (50 mM HEPES, pH 7.5, 5 mM EDTA, 150 mM NaCl, 1% Triton X-100). Lysates were clarified by centrifugation at 20,000 RCF for 10 min and equal amounts of protein from each sample were incubated at 37° C. with 100 μM fluorogenic substrate. To assay for direct inhibition of the 20S proteasome in vitro, purified 20S human proteasome (200 ng) was incubated with WP1130 (5 μM), MG132 (5 μM) or Lactacystin (5 μM) for 30 min at 37° C. before addition of the substrates. Fluorescence intensity was measured using a spectrophotometer at excitation 360 nm & emission 460 nm. Assays were performed in triplicate, and statistical significance was determined with a paired Student's t test.

p53 = p53 immunoblot; type: cell-based; details: Z138 cells
Procedure: Whole cell lysates were prepared by boiling and sonicating the cell pellets in 1× Laemmli reducing sample buffer. To prepare detergent soluble and insoluble fractions, cells were lysed in cold isotonic lysis buffer [10 mM Tris-HCl (pH 7.5), 0.5% Triton X-100, 150 mM NaCl along with Mini-Complete and PhosSTOP] for 15 min on ice and centrifuged 10 minutes at 20,000 RCF. The clarified supernatant was used as a source of the detergent soluble cell fraction. The detergent insoluble fraction was extracted by the sonication of residual pellet in equal volumes of boiling 1× Laemmli reducing sample buffer. Equal volumes of cellular lysate or equal protein amounts were electrophoresed on SDS-PAGE gels.
An increase in p53 protein levels was observed upon WP1130 treatment. Co-treatment of Z138 cells with cycloheximide (50 μg/mL) and WP1130 confirmed the stabilization rather than induction of p53 protein. Furthermore, a rapid decline in MCL-1 levels upon WP1130 treatment was observed. To re-confirm the role played by USP9x and USP5 in regulating the levels of MCL-1 and p53 respectively, a siRNA based knockdown of USP9x and USP5 in HEK293T cells was performed.

[2] = tested on: CML and melanoma xenografts; assay: Xenograft mouse models of CML and melanoma; type: in vivo
Hsp70 = Hsp70 immunoblot; type: cell-based; details: CML cells

Chain of UCH-L3 (P15374 whole entry, species assumed): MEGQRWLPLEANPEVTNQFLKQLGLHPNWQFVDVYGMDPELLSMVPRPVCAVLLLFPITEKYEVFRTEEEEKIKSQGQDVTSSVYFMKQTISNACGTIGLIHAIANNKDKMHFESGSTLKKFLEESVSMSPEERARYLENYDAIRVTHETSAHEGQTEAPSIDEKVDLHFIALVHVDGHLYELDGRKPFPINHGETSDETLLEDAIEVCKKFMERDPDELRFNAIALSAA

Question: What does the source list for `CCC[C@H](NC(=O)/C(C#N)=C/c1cccc(Br)n1)c1ccccc1` [WP1130]?
Answer: block of virus infection [1]: not; Log inhibition by plaque assay (Sindbis virus): 2-2.5 log; Log inhibition by plaque assay (Sindbis virus; listed as HWP1130): 2 log; inhibition of UCH-L3 activity (UCH-L3): No inhibition; reduction of USP5 activity (USP5): ≥ 80%; reduction of UCH-L1 activity (UCH-L1): ≥ 80%; log reduction at 5 µM (Murine norovirus (MNV); RAW264.7, MNV, murine macrophages (RAW264.7 or bone marrow derived), 5 μM, 30 min pre-treatment, 8-12 hr, read-out: Log inhibition by plaque assay): ~2; EC50 (Murine norovirus (MNV); RAW264.7, MNV-1, RAW 264.7, 12 hours postinfection, read-out: anti-viral EC50 activity): 1900 nM; 20S proteasome chymotryptic-like activity in intact cells (in vivo) (20S proteasome): did not suppress; also recorded: no significant decline; p53 protein levels (p53): increase; tumor growth in vivo [2]: effectively suppresses tumor growth; Hsp70 protein levels (Hsp70): increased

From patent publication US8809377B2, “Deubiquitinase inhibitors and methods for use of the same” (The Regents of the University of Michigan, priority 2010, dated 2014)
